What is called IC50 is the concentration that gives 50% inhibition.

The text below walks through data of patent US20210198277A1, “AMINE-SUBSTITUTED ARYL OR HETEROARYL COMPOUNDS” (Epizyme, Inc., priority 2016, published 2021).

This experiment concerns the target T1, EHMT1 (Homo sapiens, UniProt Q9H9B1).
T1 sequence (Q9H9B1 1-1298): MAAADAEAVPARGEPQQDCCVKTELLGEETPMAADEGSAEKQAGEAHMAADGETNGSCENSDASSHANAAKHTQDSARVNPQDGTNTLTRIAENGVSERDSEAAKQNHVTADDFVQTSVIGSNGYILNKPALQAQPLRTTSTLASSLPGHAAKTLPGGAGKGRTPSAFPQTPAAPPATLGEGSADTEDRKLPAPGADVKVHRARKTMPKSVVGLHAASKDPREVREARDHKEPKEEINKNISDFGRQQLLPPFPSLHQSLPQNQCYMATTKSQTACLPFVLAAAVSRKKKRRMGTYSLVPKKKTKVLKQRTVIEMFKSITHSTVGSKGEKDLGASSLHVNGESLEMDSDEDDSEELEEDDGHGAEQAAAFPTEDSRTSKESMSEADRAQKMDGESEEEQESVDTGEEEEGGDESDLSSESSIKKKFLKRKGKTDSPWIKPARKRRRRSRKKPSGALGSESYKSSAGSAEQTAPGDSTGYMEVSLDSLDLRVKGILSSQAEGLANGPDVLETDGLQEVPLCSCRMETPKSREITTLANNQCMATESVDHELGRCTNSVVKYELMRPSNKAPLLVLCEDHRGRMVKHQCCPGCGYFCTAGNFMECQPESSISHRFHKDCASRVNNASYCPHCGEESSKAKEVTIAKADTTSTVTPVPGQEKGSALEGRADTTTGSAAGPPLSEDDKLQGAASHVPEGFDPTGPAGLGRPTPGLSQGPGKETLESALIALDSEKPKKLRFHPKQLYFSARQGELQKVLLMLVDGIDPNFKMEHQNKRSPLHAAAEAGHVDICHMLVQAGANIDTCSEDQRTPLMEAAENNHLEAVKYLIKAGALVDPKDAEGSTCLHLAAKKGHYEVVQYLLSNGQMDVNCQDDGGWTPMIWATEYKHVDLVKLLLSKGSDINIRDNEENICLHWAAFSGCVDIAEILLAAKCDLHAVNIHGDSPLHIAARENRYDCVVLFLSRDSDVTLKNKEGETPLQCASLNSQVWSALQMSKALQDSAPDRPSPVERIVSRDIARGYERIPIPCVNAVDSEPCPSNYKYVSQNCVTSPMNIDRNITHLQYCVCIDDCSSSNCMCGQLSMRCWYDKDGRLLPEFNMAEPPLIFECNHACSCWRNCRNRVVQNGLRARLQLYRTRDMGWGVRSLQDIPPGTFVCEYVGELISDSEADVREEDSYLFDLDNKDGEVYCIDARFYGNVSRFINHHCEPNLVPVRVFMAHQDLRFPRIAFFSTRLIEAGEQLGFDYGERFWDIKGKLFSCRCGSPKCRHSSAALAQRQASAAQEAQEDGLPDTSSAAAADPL
Put plainly: EHMT1 enzyme assay on peptide substrate (EHMT1 PEP). It is filed as biochemical. Particulars: Table VI; read-out: EHMT1 PEP IC50.
For the molecule `CCN1CCO[C@H](COc2cc(Nc3nccc(NC)n3)ccc2OC)C1` [Compound 937], the IC50 was > 10000 nM.
Take `CNc1cc(C)nc(Nc2ccc(C(=O)NCc3ccccc3)c(OC)c2)n1` [Compound 877]: the IC50 is > 10000 nM.
`COc1ncc(Nc2nc(C)cc(NCC3COC3)n2)cc1OC[C@H](O)CN1CCCC1` [Compound 884]: the IC50 is > 10000 nM.
`CNc1cc(C)nc(Nc2cc(OC[C@@H](O)CN3CCCC3)c(OC)cn2)n1` [Compound 885]: the IC50 is 1000 to 10000 nM.
In the case of `CNc1ccnc(Nc2ccc(OC)c(OC[C@H](CN3CCCC3)OC)c2)n1` [Compound 920], the IC50 is 100 to 1000 nM.
For the molecule `CNc1cc(C)nc(Nc2ccc(OC)c(OCC(O)CN3CCCC3)c2)n1` (stereo in doubt) [Compound 906, (2S)-1-(2-methoxy-5-[[4-methyl-6-(methylamino)pyrimidin-2-yl]amino]phenoxy)-3-(pyrrolidin-1-yl)propan-2-ol], the half-inhibitory concentration (IC50) was < 100 nM.
For `CNc1cc(C)nc(Nc2ccc(OC)c(C(=O)NC3CCN(C)CC3)c2)n1` [Compound 873] the value was > 10000 nM.
In the case of `CNc1cc(C)nc(Nc2cc(OCCCN3CCCC3)c3[nH]nnc3c2)n1` [Compound 624], the half-inhibitory concentration (IC50) was < 100 nM.
As for `CNc1cc(C)nc(Nc2cc(OC[C@H](O)CN3CCCC3)c(OC)cn2)n1` [Compound 886], the IC50 lay in the range of 1000 to 10000 nM.
For `CNc1ccnc(Nc2ccc(OC)c(OC[C@H]3CNCCO3)c2)n1` [Compound 933] the value was 1000 to 10000 nM; for `CNc1ccnc(Nc2ccc(OC)c(OC[C@@H]3CN(C)CCO3)c2)n1` [Compound 936], > 10000 nM.
Regarding `CCN1CCC(O)(COc2cc(Nc3nccc(NC)n3)ccc2OC)C1` (stereo not drawn) [Compound 1007], the concentration for half-maximal inhibition (IC50) is 1000 to 10000 nM.
In the case of `CNc1cc(C2CCOCC2)c2cc(OC)c(OCCCN3CC(O)C3)cc2n1` [Compound 902], the IC50 was < 100 nM.
For `CNCCCOc1cc(Nc2nccc(NC)n2)ccc1OC` [Compound 916] the value was < 100 nM; for `CNC[C@@H](COc1cc(Nc2nccc(NC)n2)ccc1OC)OC` [Compound 922], 1000 to 10000 nM.
